# Measured values as given in PubChem BioAssay (NCI).
#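 Following 48 hours of exposure in 96-well plates, responses at five concentrations were used to interpolate endpoints linearly. GI50 marks 50% less growth. At the TGI there is no net growth.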
# Columns and labels:
# Experiment in all cases: inhibition of tumour cell growth, NCI panel, 48 h
# [1] = tested on: 786-0 renal
# [2] = tested on: A498 renal
# [3] = tested on: A549 NSCLC
# [4] = tested on: ACHN renal
# [5] = tested on: BT-549 breast
# [6] = tested on: CAKI-1 renal
# [7] = tested on: CCRF-CEM leukemia
# [8] = tested on: COLO 205 colon
# [9] = tested on: DU-145 prostate
# [10] = tested on: EKVX NSCLC
# [11] = tested on: HCC-2998 colon
# [12] = tested on: HCT-116 colon
# [13] = tested on: HCT-15 colon
# [14] = tested on: HL-60(TB) leukemia
# [15] = tested on: HOP-62 NSCLC
# [16] = tested on: HOP-92 NSCLC
# [17] = tested on: HS 578T breast
# [18] = tested on: HT29 colon
# [19] = tested on: IGROV1 ovarian
# [20] = tested on: K-562 leukemia
# [21] = tested on: KM12 colon
# [22] = tested on: LOX IMVI melanoma
# [23] = tested on: M14 melanoma
# [24] = tested on: MALME-3M melanoma
# [25] = tested on: MCF7 breast
# [26] = tested on: MDA-MB-231 breast
# [27] = tested on: MDA-MB-435
# [28] = tested on: MOLT-4 leukemia
# [29] = tested on: NCI-H226 lung
# [30] = tested on: NCI-H23 lung
# [31] = tested on: NCI-H460 lung
# [32] = tested on: NCI-H522 lung
# [33] = tested on: NCI/ADR-RES ovarian
# [34] = tested on: OVCAR-3 ovarian
# [35] = tested on: OVCAR-4 ovarian
# [36] = tested on: OVCAR-5 ovarian
# [37] = tested on: OVCAR-8 ovarian
# [38] = tested on: PC-3 prostate
# [39] = tested on: RPMI-8226 leukemia
# [40] = tested on: RXF 393 renal
# [41] = tested on: SF-268 CNS
# [42] = tested on: SF-295 CNS
# [43] = tested on: SF-539 CNS
# [44] = tested on: SK-MEL-2 melanoma
# [45] = tested on: SK-MEL-28 melanoma
# [46] = tested on: SK-MEL-5 melanoma
# [47] = tested on: SK-OV-3 ovarian
# [48] = tested on: SN12C renal
# [49] = tested on: SNB-19 CNS
# [50] = tested on: SNB-75 CNS
# [51] = tested on: SR leukemia
# [52] = tested on: SW-620 colon
# [53] = tested on: T-47D breast
# [54] = tested on: TK-10 renal
# [55] = tested on: U251 CNS
# [56] = tested on: UACC-257 melanoma
# [57] = tested on: UACC-62 melanoma
# [58] = tested on: UO-31 renal
smiles,measurement,setting,value
C#CC#CC#CC#CC#CC#CC#CC#CC[C@@H]1OC[C@H](COC(=O)O[C@@H](C(=O)O[C@H]2C[C@@]3(O)[C@@H](OC(=O)c4ccccc4)[C@@H]4[C@]5(OC(C)=O)CO[C@@H]5C[C@H](O)[C@@]4(C)C(=O)[C@H](OC(C)=O)C(=C2C)C3(C)C)[C@@H](NC(=O)c2ccccc2)c2ccccc2)O1,GI50,[1],> 25 µM
same,TGI,[1],> 25 µM
same,GI50,[2],1.39 µM
same,TGI,[2],> 23.5 µM
same,GI50,[3],1.42 µM
same,TGI,[3],> 25 µM
same,GI50,[4],> 25 µM
same,TGI,[4],> 25 µM
same,GI50,[5],3.71 µM
same,TGI,[5],> 25 µM
same,GI50,[6],5.85 µM
same,TGI,[6],> 25 µM
same,GI50,[7],1.25 µM
same,TGI,[7],> 25 µM
same,GI50,[8],0.665 µM
same,TGI,[8],> 10.8 µM
same,GI50,[9],0.681 µM
same,TGI,[9],> 25 µM
same,GI50,[10],> 25 µM
same,TGI,[10],> 25 µM
same,GI50,[11],1.26 µM
same,TGI,[11],> 25 µM
same,GI50,[12],0.596 µM
same,TGI,[12],> 25 µM
same,GI50,[13],> 25 µM
same,TGI,[13],> 25 µM
same,GI50,[14],0.819 µM
same,TGI,[14],> 18.7 µM
same,GI50,[15],5.13 µM
same,TGI,[15],> 25 µM
same,GI50,[16],> 18.5 µM
same,TGI,[16],> 25 µM
same,GI50,[17],0.673 µM
same,TGI,[17],> 25 µM
same,GI50,[18],0.355 µM
same,TGI,[18],> 25 µM
same,GI50,[19],1.29 µM
same,TGI,[19],> 25 µM
same,GI50,[20],1.04 µM
same,TGI,[20],> 25 µM
same,GI50,[21],0.683 µM
same,TGI,[21],> 25 µM
same,GI50,[22],0.708 µM
same,TGI,[22],> 25 µM
same,GI50,[23],1.09 µM
same,TGI,[23],24.9 µM
same,GI50,[24],2.07 µM
same,TGI,[24],> 25 µM
same,GI50,[25],0.348 µM
same,TGI,[25],> 25 µM
same,GI50,[26],4.17 µM
same,TGI,[26],> 25 µM
same,GI50,[27],0.0987 µM
same,TGI,[27],0.398 µM
same,GI50,[28],1.85 µM
same,TGI,[28],> 25 µM
same,GI50,[29],> 21.8 µM
same,TGI,[29],> 25 µM
same,GI50,[30],2.24 µM
same,TGI,[30],> 25 µM
same,GI50,[31],0.185 µM
same,TGI,[31],> 25 µM
same,GI50,[32],1.81 µM
same,TGI,[32],> 25 µM
same,GI50,[33],> 25 µM
same,TGI,[33],> 25 µM
same,GI50,[34],0.682 µM
same,TGI,[34],> 25 µM
same,GI50,[35],> 21 µM
same,TGI,[35],> 25 µM
same,GI50,[36],1.58 µM
same,TGI,[36],> 25 µM
same,GI50,[37],1.57 µM
same,TGI,[37],> 25 µM
same,GI50,[38],1.58 µM
same,TGI,[38],> 25 µM
same,GI50,[39],0.436 µM
same,TGI,[39],> 25 µM
same,GI50,[40],> 5.16 µM
same,TGI,[40],> 25 µM
same,GI50,[41],1.93 µM
same,TGI,[41],> 25 µM
same,TGI,[42],> 25 µM
same,GI50,[43],1.2 µM
same,TGI,[43],> 25 µM
same,GI50,[44],5.65 µM
same,TGI,[44],> 25 µM
same,GI50,[45],3.88 µM
same,TGI,[45],> 25 µM
same,GI50,[46],3.13 µM
same,TGI,[46],> 25 µM
same,GI50,[47],3.32 µM
same,TGI,[47],> 25 µM
same,GI50,[48],4.36 µM
same,TGI,[48],> 25 µM
same,GI50,[49],3.88 µM
same,TGI,[49],> 25 µM
same,GI50,[50],0.114 µM
same,TGI,[50],1.48 µM
same,GI50,[51],0.862 µM
same,TGI,[51],> 25 µM
same,GI50,[52],0.819 µM
same,TGI,[52],> 25 µM
same,GI50,[53],1.07 µM
same,TGI,[53],> 25 µM
same,GI50,[54],> 25 µM
same,TGI,[54],> 25 µM
same,GI50,[55],1.42 µM
same,TGI,[55],> 25 µM
same,GI50,[56],6.61 µM
same,TGI,[56],> 25 µM
same,GI50,[57],5.58 µM
same,TGI,[57],> 25 µM
same,GI50,[58],> 25 µM
same,TGI,[58],> 25 µM
